From ChEMBL document CHEMBL1137486, “N4-phenyl modifications of N2-(2-hydroxyl)ethyl-6-(pyrrolidin-1-yl)-1,3,5-triazine-2,4-diamines enhance glucocerebrosidase inhibition by small molecules with potential as chemical chaperones for Gaucher disease” (Bioorg Med Chem Lett, 2007)
Calls of active or inactive are those of the source. No cut-off for these calls is given here.

The compounds below were run against Alpha-galactosidase (Coffea arabica) (UniProt Q5DUH8) (assay: Inhibition of coffee bean alpha galactosidase upto 77 uM).
Chain of Alpha-galactosidase (Coffea arabica) (Q5DUH8 as listed by the source): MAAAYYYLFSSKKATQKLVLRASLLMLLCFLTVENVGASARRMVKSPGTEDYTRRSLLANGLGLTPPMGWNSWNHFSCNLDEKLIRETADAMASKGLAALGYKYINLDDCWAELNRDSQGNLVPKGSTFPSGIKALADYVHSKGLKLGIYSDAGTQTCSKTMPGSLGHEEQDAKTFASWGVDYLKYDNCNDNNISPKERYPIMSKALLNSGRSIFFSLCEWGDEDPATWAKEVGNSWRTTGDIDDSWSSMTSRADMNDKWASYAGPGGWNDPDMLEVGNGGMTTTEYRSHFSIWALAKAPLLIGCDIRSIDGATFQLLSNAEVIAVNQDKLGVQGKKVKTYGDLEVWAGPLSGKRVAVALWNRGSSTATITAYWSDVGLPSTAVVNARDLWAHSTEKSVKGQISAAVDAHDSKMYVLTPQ

Activity	SMILES
inactive	CC(C)(C)Oc1ccccc1Nc1nc(NCCO)nc(N2CCCC2)n1

The compounds below were run against T1, Beta-hexosaminidase subunit alpha (Bos taurus) (UniProt Q0V8R6) (assay: Inhibition of bovine beta hexosaminidase upto 77 uM).
T1 sequence (whole entry): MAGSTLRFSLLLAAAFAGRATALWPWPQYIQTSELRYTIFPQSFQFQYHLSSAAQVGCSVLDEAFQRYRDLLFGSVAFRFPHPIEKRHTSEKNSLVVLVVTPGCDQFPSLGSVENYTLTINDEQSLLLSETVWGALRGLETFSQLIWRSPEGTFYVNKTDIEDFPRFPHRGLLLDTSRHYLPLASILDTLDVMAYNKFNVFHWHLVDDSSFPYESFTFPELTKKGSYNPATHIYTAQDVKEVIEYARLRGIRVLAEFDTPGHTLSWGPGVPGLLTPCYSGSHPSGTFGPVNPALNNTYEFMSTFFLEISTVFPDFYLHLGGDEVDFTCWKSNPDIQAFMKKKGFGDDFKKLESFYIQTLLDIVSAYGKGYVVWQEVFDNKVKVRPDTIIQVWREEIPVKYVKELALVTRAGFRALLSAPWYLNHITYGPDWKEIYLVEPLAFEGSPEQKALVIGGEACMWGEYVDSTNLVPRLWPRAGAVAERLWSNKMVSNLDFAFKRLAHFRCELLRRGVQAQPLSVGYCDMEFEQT

Activity	SMILES
inactive	CC(C)(C)Oc1ccccc1Nc1nc(NCCO)nc(N2CCCC2)n1

What follows are compounds tested against T2, Lysosomal acid glucosylceramidase (Homo sapiens) (UniProt P04062) (assay: (§1) Inhibition of glucocerebrosidase).
T2 sequence (whole entry): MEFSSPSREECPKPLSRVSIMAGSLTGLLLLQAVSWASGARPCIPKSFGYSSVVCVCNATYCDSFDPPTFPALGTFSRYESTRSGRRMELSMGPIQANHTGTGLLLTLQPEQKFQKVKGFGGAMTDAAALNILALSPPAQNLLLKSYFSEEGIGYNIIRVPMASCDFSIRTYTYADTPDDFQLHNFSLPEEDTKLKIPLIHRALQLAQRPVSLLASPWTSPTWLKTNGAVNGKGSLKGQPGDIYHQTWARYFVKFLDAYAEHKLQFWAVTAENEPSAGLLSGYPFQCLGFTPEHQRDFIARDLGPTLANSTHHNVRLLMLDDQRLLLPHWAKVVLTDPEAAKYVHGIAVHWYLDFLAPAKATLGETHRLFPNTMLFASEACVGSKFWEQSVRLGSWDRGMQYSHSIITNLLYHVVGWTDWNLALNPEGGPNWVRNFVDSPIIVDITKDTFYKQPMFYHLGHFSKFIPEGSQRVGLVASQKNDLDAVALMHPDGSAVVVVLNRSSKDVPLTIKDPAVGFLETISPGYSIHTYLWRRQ

Activity	SMILES
inactive	NC(=O)c1ccccc1Nc1nc(NCCO)nc(N2CCCC2)n1
inactive	COc1ccccc1Nc1nc(NCCNC(C)=O)nc(N2CCCC2)n1
inactive	COc1ccc(Cl)cc1Nc1nc(NCc2ccccc2)nc(N2CCCC2)n1
inactive	CCN(CC)c1nc(NCCO)nc(Nc2cc(Cl)ccc2OC)n1
inactive	COc1ccc(Cl)cc1Nc1nc(NCCO)nc(N2CCCCCC2)n1
inactive	COC(=O)CNc1nc(Nc2ccccc2OC)nc(N2CCCC2)n1
inactive	COc1ccccc1Nc1nc(NCC(N)=O)nc(N2CCCC2)n1
inactive	O=[N+]([O-])c1ccccc1Nc1nc(NCCO)nc(N2CCCC2)n1
inactive	COc1ccc(Cl)cc1Nc1nc(N)nc(N2CCCC2)n1
inactive	COc1ccc(Cl)cc1Nc1nc(N(CCO)CCO)nc(N2CCCC2)n1
inactive	COCCNc1nc(Nc2cc(Cl)ccc2OC)nc(N2CCCC2)n1
inactive	CC(=O)Nc1ccccc1Nc1nc(NCCO)nc(N2CCCC2)n1
inactive	COc1ccccc1Nc1nc(NCCCCO)nc(N2CCCC2)n1
inactive	COc1ccc(Cl)cc1Nc1nc(NCc2ccco2)nc(N2CCCC2)n1

These compounds were tested against T3, Lysosomal acid glucosylceramidase (Homo sapiens, UniProt P04062) (assay: as §1).
T3 sequence (P04062 whole entry): T2 sequence (whole entry)

SMILES	IC50 [µM]
OCCNc1nc(Nc2ccccc2OCc2ccccc2)nc(N2CCCC2)n1	31.4
COc1ccc(Cl)cc1Nc1nc(NCCO)nc(N2CCCCC2)n1	31.1
OCCNc1nc(Nc2ccccc2Cl)nc(N2CCCC2)n1	29
COc1ccccc1Nc1nc(NCC(C)O)nc(N2CCCC2)n1 (configuration not stated)	20.7
OCCNc1nc(Nc2ccccc2Oc2ccccc2)nc(N2CCCC2)n1	21.7
COc1ccccc1Nc1nc(NCCO)nc(NCc2ccccc2)n1	18.8

Now from value to compound:

IC50 [µM]	SMILES
2.22	COc1ccc(-c2ccccc2)cc1Nc1nc(NCCO)nc(N2CCCC2)n1
8.25	COc1cccc(Nc2nc(NCCO)nc(N3CCCC3)n2)c1
2	OCCNc1nc(Nc2ccccc2O)nc(N2CCCC2)n1
6.1	CCCCNc1nc(NCCO)nc(Nc2ccccc2OC)n1
7.75	COc1ccccc1Nc1nc(NCCO)nc(N2CCC(F)(F)C2)n1
1.04	CC(C)(C)Oc1ccc(Cl)cc1Nc1nc(NCCO)nc(N2CCCC2)n1
3.94	Cc1ccccc1Nc1nc(NCCO)nc(N2CCCC2)n1
6.69	OCCNc1nc(Nc2cccc(Cl)c2)nc(N2CCCC2)n1
3.34	OCCNc1nc(Nc2ccccc2OC(F)(F)F)nc(N2CCCC2)n1
10	Cc1ccc(Nc2nc(NCCO)nc(N3CCCC3)n2)cc1
2.39	CSc1ccccc1Nc1nc(NCCO)nc(N2CCCC2)n1
2.65	COc1ccc(C(F)(F)F)cc1Nc1nc(NCCO)nc(N2CCCC2)n1
0.37	OCCNc1nc(Nc2cc(-c3ccccc3)ccc2O)nc(N2CCCC2)n1
6.19	Cc1cccc(Nc2nc(NCCO)nc(N3CCCC3)n2)c1
4.9	COc1ccc(Nc2nc(NCCO)nc(N3CCCC3)n2)c(OC)c1
2.31	COc1ccccc1Nc1nc(NCCO)nc(N2CCC2)n1
0.73	OCCNc1nc(Nc2cc(Cl)ccc2O)nc(N2CCCC2)n1
3.44	CC(C)Oc1ccc(Cl)cc1Nc1nc(NCCO)nc(N2CCCC2)n1
0.96	CCOc1ccc(Cl)cc1Nc1nc(NCCO)nc(N2CCCC2)n1
1.08	COc1ccccc1Nc1nc(NCCO)nc(N2CCCC2)n1
16.5	OCCNc1nc(Nc2ccccc2)nc(N2CCCC2)n1
7.77	CCCCNc1nc(Nc2cc(Cl)ccc2OC)nc(N2CCCC2)n1
6.34	OCCNc1nc(Nc2ccc(Cl)cc2)nc(N2CCCC2)n1
0.77	CCOc1ccccc1Nc1nc(NCCO)nc(N2CCCC2)n1
8.8	COc1ccc(Nc2nc(NCCO)nc(N3CCCC3)n2)cc1
1.53	COc1ccc(OC)c(Nc2nc(NCCO)nc(N3CCCC3)n2)c1
0.33	CC(C)(C)Oc1ccccc1Nc1nc(NCCO)nc(N2CCCC2)n1
6.8	COc1ccccc1Nc1nc(NCC(O)Cc2ccccc2)nc(N2CCCC2)n1 (configuration not stated)
12.1	COc1ccc(Cl)cc1Nc1nc(NCCO)nc(N2CCOCC2)n1

The compounds below were run on Oryza sativa (assay: Inhibition of rice alpha glucosidase upto 77 uM).

Activity	SMILES
inactive	CC(C)(C)Oc1ccccc1Nc1nc(NCCO)nc(N2CCCC2)n1
